{"source": "patent US20110217715A1", "about": "“GENE EXPRESSION IN DUCHENNE MUSCULAR DYSTROPHY” (CHILDREN'S HOSPITAL MEDICAL CENTER, priority 2008, published 2011)", "tested_on": "mRNA expression in peripheral blood of individuals with DMD", "experiment": "Whole-blood gene expression microarray: DMD administered deflazacort vs DMD administered prednisone", "assay_type": "in vivo, human", "protocol": "Fifteen ml of blood was collected from each individual into 6 PAXgene® Vacutainer® tubes (PreAnalytiX, Germany) by antecubital fossa venipuncture. PAXgene® tubes contain a proprietary reagent that immediately stabilizes RNA, thus reducing RNA degradation and minimizing gene expression changes following phlebotomy. The tubes were then inverted 20 times, then remained undisturbed for 2 h at room temperature (about 19° C. to about 22° C.), and then stored at -70° C. until processed. Total RNA was isolated using the Paxgene® blood RNA kit (PreAnalytiX, Germany) according to the manufacturers instructions. The RNA isolated is from all cells in whole blood. Typical yields of total RNA isolated from about 7.5 ml of human whole blood were between 10 μg RNA and 40 μg RNA. RNA quality and purity was analyzed by spectrophotometry using the Nanodrop ND-1000, and RNA integrity was analyzed using the Agilent 2100 Bioanalyzer. […] Sample labeling, hybridization to chips, and image scanning were performed using standard Affymetrix protocols. For each whole blood sample from control individuals and individuals with DMD, total RNA was labeled using the One-Cycle Target Labeling protocol and hybridized to the arrays. […] Double-stranded cDNA synthesis, biotin-labeled cRNA synthesis, and cRNA fragmentation were performed according to the Affymetrix GeneChip Eukaryotic Expression Analysis protocol. The labeled, fragmented cRNA (15 μg) was hybridized at 45° C. overnight. After hybridization, the array was washed and stained. The arrays were scanned with an argon-ion laser at λ=570 nm, with a resolution of 3 μm/pixel (Affymetrix, Inc.). After scanning the array, the raw probe level values for each probe were saved in Affymetrix.cel files. […] Statistical analyses, including t-test analyses, unsupervised hierarchical clustering, and principal component analyses were conducted using Genespring 7.2 software ([…]® 7, Silicon Genetics, Redwood City Calif.). […] Corrections for multiple comparisons used a Benjamini-Hochberg False Discovery Rate (FDR) of 0.05, disclosed in Tang et al., J Cereb Blood Flow Metab 26 (2006) 1089, which is expressly incorporated by reference herein in its entirety. […] Sample processing and array hybridization, probe-level data analysis, and statistical analysis were identical to Example 1.", "data": [{"smiles": "CC(=O)OCC(=O)[C@@]12N=C(C)O[C@@H]1C[C@H]1[C@@H]3CCC4=CC(=O)C=C[C@]4(C)[C@H]3[C@@H](O)C[C@@]12C", "note": "[deflazacort]", "values": [{"measurement": "p-value", "setting": "gene PECAM1, Genbank AA702701, Nucleic Acid No. 2155", "result": 0.00909}, {"measurement": "p-value", "setting": "gene PECAM1, Genbank M37780, Nucleic Acid No. 2154", "result": 0.00421}, {"measurement": "p-value", "setting": "gene PF4V1, Genbank NM_002620, Nucleic Acid No. 2156", "result": 0.0164}, {"measurement": "p-value", "setting": "gene PFKFB3, Genbank NM_004566, Nucleic Acid No. 2157", "result": 0.0338}, {"measurement": "p-value", "setting": "gene PHACTR2, Genbank AA551142, Nucleic Acid No. 2158", "result": 0.039}, {"measurement": "p-value", "setting": "gene PHACTR2, Genbank NM_014721, Nucleic Acid No. 2159", "result": 0.0451}, {"measurement": "p-value", "setting": "gene PHCA, Genbank R12678, Nucleic Acid No. 2160", "result": 0.0221}, {"measurement": "p-value", "setting": "gene PHF21A, Genbank BC015714, Nucleic Acid No. 2161", "result": 0.0231}, {"measurement": "p-value", "setting": "gene PHGDHL1, Genbank AF339764, Nucleic Acid No. 2162", "result": 0.0444}, {"measurement": "p-value", "setting": "gene PIAS1, Genbank AI732802, Nucleic Acid No. 2163", "result": 0.0349}, {"measurement": "p-value", "setting": "gene PICALM, Genbank AL135735, Nucleic Acid No. 2164", "result": 0.0165}, {"measurement": "p-value", "setting": "gene PICALM, Genbank AV722190, Nucleic Acid No. 762", "result": 0.0363}, {"measurement": "p-value", "setting": "gene PLEK, Genbank NM_002664, Nucleic Acid No. 2165", "result": 0.000252}, {"measurement": "p-value", "setting": "gene PLEKHA2, Genbank BF347859, Nucleic Acid No. 886", "result": 0.0183}, {"measurement": "p-value", "setting": "gene PLEKHM1, Genbank AB002354, Nucleic Acid No. 2166", "result": 0.0134}, {"measurement": "p-value", "setting": "gene PLSCR1, Genbank AI825926, Nucleic Acid No. 2167", "result": 0.0487}, {"measurement": "p-value", "setting": "gene PLXNB2, Genbank BC004542, Nucleic Acid No. 2168", "result": 0.0177}, {"measurement": "p-value", "setting": "gene PPGB, Genbank NM_000308, Nucleic Acid No. 2170", "result": 0.0193}, {"measurement": "p-value", "setting": "gene PPIG, Genbank AW970944, Nucleic Acid No. 2171", "result": 0.011}, {"measurement": "p-value", "setting": "gene PPM1F, Genbank BC013798, Nucleic Acid No. 2172", "result": 0.0208}, {"measurement": "p-value", "setting": "gene PPP3CA, Genbank AA532718, Nucleic Acid No. 2173", "result": 0.0165}, {"measurement": "p-value", "setting": "gene PRKACA, Genbank NM_002730, Nucleic Acid No. 2174", "result": 0.00184}, {"measurement": "p-value", "setting": "gene PRKAR1A, Genbank AI682905, Nucleic Acid No. 2175", "result": 0.0262}, {"measurement": "p-value", "setting": "gene PRKAR2B, Genbank NM_002736, Nucleic Acid No. 1688", "result": 0.0441}, {"measurement": "p-value", "setting": "gene PRKCD, Genbank NM_006254, Nucleic Acid No. 2176", "result": 0.0077}, {"measurement": "p-value", "setting": "gene PROK2, Genbank AF182069, Nucleic Acid No. 2177", "result": 0.0338}, {"measurement": "p-value", "setting": "gene PSENEN, Genbank NM_018468, Nucleic Acid No. 2178", "result": 0.0201}, {"measurement": "p-value", "setting": "gene PTGS1, Genbank NM_000962, Nucleic Acid No. 329 (first entry)", "result": 0.0419}, {"measurement": "p-value", "setting": "gene PTGS1, Genbank NM_000962, Nucleic Acid No. 329 (second entry)", "result": 0.0226}, {"measurement": "p-value", "setting": "gene PTGS1, Genbank S36219, Nucleic Acid No. 1667", "result": 0.0474}, {"measurement": "p-value", "setting": "gene PTGS2, Genbank AY151286, Nucleic Acid No. 2179", "result": 0.0187}, {"measurement": "p-value", "setting": "gene PTPN12, Genbank AL079909, Nucleic Acid No. 2180", "result": 0.00163}, {"measurement": "p-value", "setting": "gene PTPRE, Genbank AA775177, Nucleic Acid No. 2181", "result": 0.0161}, {"measurement": "p-value", "setting": "gene RAB8A, Genbank BC002977, Nucleic Acid No. 2185", "result": 0.00561}, {"measurement": "p-value", "setting": "gene RAB11FIP1, Genbank NM_025151, Nucleic Acid No. 2182", "result": 0.0397}, {"measurement": "p-value", "setting": "gene RAB11FIP4, Genbank BG248313, Nucleic Acid No. 465", "result": 0.047}, {"measurement": "p-value", "setting": "gene RAB18, Genbank AU145607, Nucleic Acid No. 2183", "result": 0.0414}, {"measurement": "p-value", "setting": "gene RAB31, Genbank NM_006868, Nucleic Acid No. 2184", "result": 0.0378}, {"measurement": "p-value", "setting": "gene RAC1, Genbank AJ012502, Nucleic Acid No. 551", "result": 0.0328}, {"measurement": "p-value", "setting": "gene RAI17, Genbank AF070622, Nucleic Acid No. 1313", "result": 0.0318}, {"measurement": "p-value", "setting": "gene RAP1A, Genbank AW793677, Nucleic Acid No. 2186", "result": 0.0194}, {"measurement": "p-value", "setting": "gene RAP80, Genbank AF113675, Nucleic Acid No. 2187", "result": 0.00717}, {"measurement": "p-value", "setting": "gene RARA, Genbank AJ417079, Nucleic Acid No. 2188", "result": 0.00262}, {"measurement": "p-value", "setting": "gene RASA1, Genbank AK021812, Nucleic Acid No. 2189", "result": 0.0372}, {"measurement": "p-value", "setting": "gene RBBP5, Genbank NM_005057, Nucleic Acid No. 2190", "result": 0.0383}, {"measurement": "p-value", "setting": "gene REL, Genbank NM_002908, Nucleic Acid No. 2191", "result": 0.0166}, {"measurement": "p-value", "setting": "gene RERE, Genbank H71242, Nucleic Acid No. 2192", "result": 0.0354}, {"measurement": "p-value", "setting": "gene RFWD2, Genbank BF725688, Nucleic Acid No. 2193", "result": 0.0334}, {"measurement": "p-value", "setting": "gene RFX2, Genbank AK024288, Nucleic Acid No. 2194", "result": 0.0472}, {"measurement": "p-value", "setting": "gene RG9MTD3, Genbank AI214944, Nucleic Acid No. 2195", "result": 0.0449}, {"measurement": "p-value", "setting": "gene RHOQ, Genbank BC033251, Nucleic Acid No. 2196", "result": 0.0402}, {"measurement": "p-value", "setting": "gene RIN3, Genbank AA625133, Nucleic Acid No. 2197", "result": 0.0322}, {"measurement": "p-value", "setting": "gene RIT1, Genbank AL037450, Nucleic Acid No. 1675", "result": 0.0214}, {"measurement": "p-value", "setting": "gene RNF24, Genbank BC000213, Nucleic Acid No. 2198", "result": 0.0415}, {"measurement": "p-value", "setting": "gene ROCK1, Genbank AL050032, Nucleic Acid No. 2199", "result": 0.0356}, {"measurement": "p-value", "setting": "gene RSU1, Genbank AW515913, Nucleic Acid No. 2200", "result": 0.0152}, {"measurement": "p-value", "setting": "gene RUFY1, Genbank NM_025158, Nucleic Acid No. 2201", "result": 0.0258}, {"measurement": "p-value", "setting": "gene RUFY2, Genbank NM_017987, Nucleic Acid No. 2202", "result": 0.00853}, {"measurement": "p-value", "setting": "gene SEC14L1, Genbank NM_003003, Nucleic Acid No. 2203", "result": 0.0303}, {"measurement": "p-value", "setting": "gene SEC23B, Genbank BC005032, Nucleic Acid No. 2204", "result": 0.0301}, {"measurement": "p-value", "setting": "gene SECTM1, Genbank BF939675, Nucleic Acid No. 2205", "result": 0.0499}, {"measurement": "p-value", "setting": "gene SERPINA1, Genbank AF119873, Nucleic Acid No. 2207", "result": 0.0459}, {"measurement": "p-value", "setting": "gene SERPINA1, Genbank NM_000295, Nucleic Acid No. 2206", "result": 0.022}, {"measurement": "p-value", "setting": "gene SF3A2, Genbank L21990, Nucleic Acid No. 2208", "result": 0.0469}, {"measurement": "p-value", "setting": "gene SGK, Genbank NM_005627, Nucleic Acid No. 2209", "result": 0.028}, {"measurement": "p-value", "setting": "gene SH3BGRL2, Genbank AL035700, Nucleic Acid No. 1736", "result": 0.0258}, {"measurement": "p-value", "setting": "gene pp9099, Genbank NM_025201, Nucleic Acid No. 2169", "result": 0.0311}, {"measurement": "number of genes significantly up-regulated", "setting": "of the 508 genes, deflazacort compared to prednisone", "result": 30, "unit": "genes"}]}]}
